Read-outs that look alike come from different tables or passages of the source.
Target: T1, human GLP-1R (Homo sapiens, UniProt P43220)
T1 construct: host or cells: HEK293
Experiment: GLP-1R cAMP assay (Example B1a, HTRF, 30 min at room temperature)
Format: cell-based
Outline: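 Competitive HTRF read-out of cAMP after 30 min room-temperature stimulation, BETP absent, of human GLP-1R-HEK293 cells (1,000/well) in HEPES buffer with 500 μM IBMX and 0.1% BSA. Activation normalised to GLP-1(7-37) positive control. EC50 from 4-parameter non-linear regression.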

[1] = cAMP accumulation in HEK293 expressing human GLP-1R, no BETP, 30 min room temperature (Method B1a, compounds ID 1-609), Table 1, read-out: EC50

T1 sequence (P43220 24-463): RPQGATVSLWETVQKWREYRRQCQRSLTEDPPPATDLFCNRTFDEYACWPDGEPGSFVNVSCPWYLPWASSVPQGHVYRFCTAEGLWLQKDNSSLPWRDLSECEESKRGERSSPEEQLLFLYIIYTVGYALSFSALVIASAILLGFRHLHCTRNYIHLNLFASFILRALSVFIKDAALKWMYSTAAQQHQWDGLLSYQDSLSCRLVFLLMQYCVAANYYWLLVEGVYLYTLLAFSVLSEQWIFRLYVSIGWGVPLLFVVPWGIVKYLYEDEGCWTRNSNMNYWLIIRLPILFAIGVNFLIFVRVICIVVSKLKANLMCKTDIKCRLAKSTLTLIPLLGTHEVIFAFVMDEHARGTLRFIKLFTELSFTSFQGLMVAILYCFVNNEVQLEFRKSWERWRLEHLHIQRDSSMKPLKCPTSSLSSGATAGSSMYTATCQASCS

Row | SMILES | EC50 [1] [nM] | also measured
1 | Cc1cc(-n2nc3c(c2-n2ccn(-c4ccc5c(cnn5C)c4F)c2=O)CCN(C(=O)c2cc4cc([C@H]5CCOC(C)(C)C5)ccc4n2[C@@]2(c4noc(=O)[nH]4)C[C@@H]2C)CC3)cc(C)c1F [Compound 421, 3-[(1S,2S)-1-[5-[(4S)-2,2-dimethyltetrahydropyran-4-yl]-2-[2-(4-fluoro-3,5-dimethyl-phenyl)-3-[3-(4-fluoro-1-methyl-indazol-5-yl)-2-oxo-imidazol-1-yl]-4,5,7,8-tetrahydropyrazolo[3,4-d]azepine-6-carbonyl]indol-1-yl]-2-methyl-cyclopropyl]-4H-1,2,4-oxadiazol-5-one] | ≥ 10000 | 
2 | Cc1cc(-n2nc3c(c2-n2ccn(-c4cccc(C(N)=O)c4F)c2=O)[C@@H]2CC[C@H](C3)N2C(=O)c2cc3cc([C@H]4CCOC(C)(C)C4)ccc3n2[C@@]2(c3noc(=O)[nH]3)C[C@@H]2C)cc(C)c1F [Compound 422, 3-[3-[(1S,8R)-11-[5-[(4S)-2,2-dimethyltetrahydropyran-4-yl]-1-[(1S,2S)-2-methyl-1-(5-oxo-4H-1,2,4-oxadiazol-3-yl)cyclopropyl]indole-2-carbonyl]-4-(4-fluoro-3,5-dimethyl-phenyl)-4,5,11-triazatricyclo[6.2.1.02,6]undeca-2,5-dien-3-yl]-2-oxo-imidazol-1-yl]-2-fluoro-benzamide] | 303 | 
3 | Cc1cc(-n2nc3c(c2-n2ccn(-c4ccc5c(cnn5C)c4F)c2=O)[C@@H]2CC[C@H](C3)N2C(=O)c2cc3cc([C@H]4COC(C)(C)C4)ccc3n2[C@@]2(c3noc(=O)[nH]3)C[C@@H]2C)cc(C)c1F [Compound 423, 3-[(1S,2S)-1-[5-[(3S)-5,5-dimethyltetrahydrofuran-3-yl]-2-[(1S,8R)-4-(4-fluoro-3,5-dimethyl-phenyl)-3-[3-(4-fluoro-1-methyl-indazol-5-yl)-2-oxo-imidazol-1-yl]-4,5,11-triazatricyclo[6.2.1.02,6]undeca-2,5-diene-11-carbonyl]indol-1-yl]-2-methyl-cyclopropyl]-4H-1,2,4-oxadiazol-5-one] | 2120 | 
4 | Cc1cc(-n2nc3c(c2-n2ccn(-c4ccc5c(cnn5C)c4F)c2=O)[C@@H]2CC[C@H](C3)N2C(=O)c2cc3cc([C@@H]4CCOC5(CCC5)C4)ccc3n2[C@@]2(c3noc(=O)[nH]3)C[C@@H]2C)cc(C)c1F [Compound 424, 3-((1S,2S)-1-(2-((4S,7R)-3-(3-(4-fluoro-1-methyl-1H-indazol-5-yl)-2-oxo-2,3-dihydro-1H-imidazol-1-yl)-2-(4-fluoro-3,5-dimethylphenyl)-2,4,5,6,7,8-hexahydro-4,7-epiminocyclohepta [c]pyrazole-9-carbonyl)-5-((R)-5-oxaspiro[3.5]nonan-8-yl)-1H-indol-1-yl)-2-methylcyclopropyl)-1,2,4-oxadiazol-5(4H)-one] | ≥ 10000 | 
5 | Cc1cc(-n2nc3c(c2-n2ccn(-c4ccc5c(cnn5C)c4F)c2=O)[C@@H]2CC[C@H](C3)N2C(=O)c2cc3cc([C@@H]4COC(C)(C)C4)ccc3n2[C@@]2(c3noc(=O)[nH]3)C[C@@H]2C)cc(C)c1F [Compound 425, 3-[(1S,2S)-1-[5-[(3R)-5,5-dimethyltetrahydrofuran-3-yl]-2-[(1S,8R)-4-(4-fluoro-3,5-dimethyl-phenyl)-3-[3-(4-fluoro-1-methyl-indazol-5-yl)-2-oxo-imidazol-1-yl]-4,5,11-triazatricyclo[6.2.1.02,6]undeca-2,5-diene-11-carbonyl]indol-1-yl]-2-methyl-cyclopropyl]-4H-1,2,4-oxadiazol-5-one] | 292 | 
6 | Cc1cc(-n2nc3c(c2-n2ccn(-c4ccc5c(cnn5C)c4F)c2=O)[C@@H]2CC[C@H](C3)N2C(=O)c2cc3cc([C@H]4CCOC5(CCC5)C4)ccc3n2[C@@]2(c3noc(=O)[nH]3)C[C@@H]2C)cc(C)c1F [Compound 426, 3-((1S,2S)-1-(2-((4S,7R)-3-(3-(4-fluoro-1-methyl-1H-indazol-5-yl)-2-oxo-2,3-dihydro-1H-imidazol-1-yl)-2-(4-fluoro-3,5-dimethylphenyl)-2,4,5,6,7,8-hexahydro-4,7-epiminocyclohepta [c]pyrazole-9-carbonyl)-5-((S)-5-oxaspiro[3.5]nonan-8-yl)-1H-indol-1-yl)-2-methylcyclopropyl)-1,2,4-oxadiazol-5(4H)-one] | 134 | 
7 | Cc1cc(-n2nc3c(c2-n2ccn(-c4ccc5c(cnn5C)c4F)c2=O)C2CCCC(C3)N2C(=O)c2cc3cc([C@H]4CCOC(C)(C)C4)ccc3n2[C@@]2(c3noc(=O)[nH]3)C[C@@H]2C)cc(C)c1F (stereo partly drawn) [Compound 427, 3-((1S,2S)-1-(5-((S)-2,2-dimethyltetrahydro-2H-pyran-4-yl)-2-(3-(3-(4-fluoro-1-methyl-1H-indazol-5-yl)-2-oxo-2,3-dihydro-1H-imidazol-1-yl)-2-(4-fluoro-3,5-dimethylphenyl)-4,5,6,7,8,9-hexahydro-2H-4,8-epiminocycloocta [c]pyrazole-10-carbonyl)-1H-indol-1-yl)-2-methylcyclopropyl)-1,2,4-oxadiazol-5 (4H)-one] | 77.1 | 
8 | CCS(=N)(=O)c1ccc(-n2ccn(-c3c4c(nn3-c3cc(C)c(F)c(C)c3)C[C@H]3CC[C@@H]4N3C(=O)c3cc4cc([C@H]5CCOC(C)(C)C5)ccc4n3[C@@]3(c4noc(=O)[nH]4)C[C@@H]3C)c2=O)c(F)c1 (stereo partly drawn) [Compound 428, 3-((1S,2S)-1-(5-((S)-2,2-dimethyltetrahydro-2H-pyran-4-yl)-2-((4S,7R)-3-(3-(4-(ethylsulfonimidoyl)-2-fluorophenyl)-2-oxo-2,3-dihydro-1H-imidazol-1-yl)-2-(4-fluoro-3,5-dimethylphenyl)-2,4,5,6,7,8-hexahydro-4,7-epiminocyclohepta [c]pyrazole-9-carbonyl)-1H-indol-1-yl)-2-methylcyclopropyl)-1,2,4-oxadiazol-5(4H)-one] | 94.8 | 
9 | Cc1cc(-n2nc3c(c2-n2ccn(-c4ccn5c(cc(=O)n5C)c4F)c2=O)[C@@H]2CC[C@H](C3)N2C(=O)c2cc3cc([C@H]4CCOC(C)(C)C4)ccc3n2[C@@]2(c3noc(=O)[nH]3)C[C@@H]2C)cc(C)c1F [Compound 429, 3-((1S,2S)-1-(5-((S)-2,2-dimethyltetrahydro-2H-pyran-4-yl)-2-((4S,7R)-3-(3-(4-fluoro-1-methyl-2-oxo-1,2-dihydropyrazolo[1,5-a]pyridin-5-yl)-2-oxo-2,3-dihydro-1H-imidazol-1-yl)-2-(4-fluoro-3,5-dimethylphenyl)-2,4,5,6,7,8-hexahydro-4,7-epiminocyclohepta [c]pyrazole-9-carbonyl)-1H-indol-1-yl)-2-methylcyclopropyl)-1,2,4-oxadiazol-5(4H)-one] | 12.2 | 
10 | Cc1cc(-n2nc3c(c2-n2ccn(-c4ccc5c(cnn5C)c4F)c2=O)[C@H]2CCC[C@@H](C3)N2C(=O)c2cc3cc([C@H]4CCOC(C)(C)C4)ccc3n2[C@@]2(c3noc(=O)[nH]3)C[C@@H]2C)cc(C)c1F [Compound 430, 3-((1S,2S)-1-(5-((S)-2,2-dimethyltetrahydro-2H-pyran-4-yl)-2-((4R,8S)-3-(3-(4-fluoro-1-methyl-1H-indazol-5-yl)-2-oxo-2,3-dihydro-1H-imidazol-1-yl)-2-(4-fluoro-3,5-dimethylphenyl)-4,5,6,7,8,9-hexahydro-2H-4,8-epiminocycloocta [c]pyrazole-10-carbonyl)-1H-indol-1-yl)-2-methylcyclopropyl)-1,2,4-oxadiazol-5 (4H)-one] | ≥ 10000 | potency (text to Table 1d, bridge atoms configured out of the plane or toward the reader): little or no potency
11 | COc1cc2c(F)c(-n3ccn(-c4c5c(nn4-c4cc(C)c(F)c(C)c4)C[C@H]4CC[C@@H]5N4C(=O)c4cc5cc([C@H]6CCOC(C)(C)C6)ccc5n4[C@@]4(c5noc(=O)[nH]5)C[C@@H]4C)c3=O)ccn2n1 [Compound 431, 3-((1S,2S)-1-(5-((S)-2,2-dimethyltetrahydro-2H-pyran-4-yl)-2-((4S,7R)-3-(3-(4-fluoro-2-methoxypyrazolo[1,5-a]pyridin-5-yl)-2-oxo-2,3-dihydro-1H-imidazol-1-yl)-2-(4-fluoro-3,5-dimethylphenyl)-2,4,5,6,7,8-hexahydro-4,7-epiminocyclohepta [c]pyrazole-9-carbonyl)-1H-indol-1-yl)-2-methylcyclopropyl)-1,2,4-oxadiazol-5 (4H)-one] | 125 | 
12 | Cc1cc(-n2nc3c(c2-n2ccn(-c4ccc5c(cnn5C)c4F)c2=O)CN(Cc2cc4cc([C@H]5CCOC(C)(C)C5)ccc4n2[C@@]2(c4noc(=O)[nH]4)C[C@@H]2C)CCC3)cc(C)c1F [Compound 432, 3-((1S,2S)-1-(5-((S)-2,2-dimethyltetrahydro-2H-pyran-4-yl)-2-((3-(3-(4-fluoro-1-methyl-1H-indazol-5-yl)-2-oxo-2,3-dihydro-1H-imidazol-1-yl)-2-(4-fluoro-3,5-dimethylphenyl)-2,6,7,8-tetrahydropyrazolo[4,3-c]azepin-5 (4H)-yl)methyl)-1H-indol-1-yl)-2-methylcyclopropyl)-1,2,4-oxadiazol-5(4H)-one] | 284 | 
13 | Cc1cc(-n2nc3c(c2-n2ccn(-c4ccc5c(cnn5C)c4F)c2=O)[C@@H]2CCC[C@H](C3)N2C(=O)c2cc3cc([C@H]4CCOC(C)(C)C4)ccc3n2[C@@]2(c3noc(=O)[nH]3)C[C@@H]2C)cc(C)c1F [Compound 433, 3-((1S,2S)-1-(5-((S)-2,2-dimethyltetrahydro-2H-pyran-4-yl)-2-((4S,8R)-3-(3-(4-fluoro-1-methyl-1H-indazol-5-yl)-2-oxo-2,3-dihydro-1H-imidazol-1-yl)-2-(4-fluoro-3,5-dimethylphenyl)-4,5,6,7,8,9-hexahydro-2H-4,8-epiminocycloocta [c]pyrazole-10-carbonyl)-1H-indol-1-yl)-2-methylcyclopropyl)-1,2,4-oxadiazol-5 (4H)-one] | 30 | EC50 Ratio (Table 1d, potency ratio of stereoisomer pair (less potent / more potent isomer)): >333; EC50 (Table 1d, stereoisomer pairs, read-out: EC50): 30 nM; EC50 (text to Table 1d, bridge atoms configured into the plane or away from the reader, read-out: potency (EC50)): < 1000 nM

From patent US12617783B2, “Heterocyclic GLP-1R agonists” (BIOMEA FUSION, INC., priority 2024, dated 2026)
